Test results taken from patent US20120015029A1, “DIRECT COMPRESSION FORMULATION AND PROCESS” (priority 2005, published 2012).

Key:
[1] = Pharmacokinetic drug-drug interaction study vildagliptin 100 mg qd and metformin 1000 mg qd in patients with type 2 diabetes; format: in vivo, human; details: type 2 diabetes patients, steady state, vildagliptin 100 mg qd FMI tablets alone or with metformin 1000 mg qd, 5 days
Experimental: Subjects are given an end-of-study evaluation on the last day of period 2 (Day 20). For all treatment periods, subjects fasted for a minimum of 10 hours pre-dose to 4 hours post-dose. Subjects are considered to have completed the study when all safety and pharmacokinetic evaluations have been completed.
The pharmacokinetic profiles are illustrated in FIG. 5.

[2] = Water sorption/desorption isotherm (dynamic vapor sorption, DVS-1); details: 25° C., 85% RH

Tmax median [1] | hygroscopicity [2] | moisture gain [2] | SMILES
1.00 h | – | – | N#C[C@@H]1CCCN1C(=O)CNC12CC3CC(CC(O)(C3)C1)C2 [vildagliptin, (S)-1-[(3-hydroxy-1-adamantyl)amino]acetyl-2-cyano-pyrrolidine]
– | hygroscopic | 4.2% | N#C[C@@H]1CCCN1C(=O)CNC12CC3CC(CC(O)(C3)C1)C2 [vildagliptin amorphous form, (S)-1-[(3-hydroxy-1-adamantyl)amino]acetyl-2-cyano-pyrrolidine]
– | only very slightly hygroscopic | 0.9% | N#C[C@@H]1CCCN1C(=O)CNC12CC3CC(CC(O)(C3)C1)C2 [Crystalline vildagliptin Form A, (S)-1-[(3-hydroxy-1-adamantyl)amino]acetyl-2-cyano-pyrrolidine]
